Experimental data: patent US8415469B2, “Compounds and methods for kinase modulation, and indications therefor” (Plexxikon Inc., priority 2005, dated 2013)

Experiments:
Assay type in all cases: biochemical
Kit = molecular target: T1, Kit (Homo sapiens, UniProt P10721); assay: AlphaScreen kinase assay, Kit; details: read-out: IC50, activity toward kinase Kit
T1 construct: P1332.N6 BI PTP KIT M552-K948-X COD; His6 (N); made in house; host or cells: E. coli (PTP1B co-expressed)

Flt1 = molecular target: T2, Flt1 (Homo sapiens, UniProt P17948); assay: AlphaScreen kinase assay, Flt1; details: read-out: IC50, activity toward kinase Flt1
T2 construct: P1826.pETN6 BI-PTP FLT1 M799-D1165-X WT; His6 (N); made in house; host or cells: E. coli (PTP1B co-expressed)
T2 sequence (P17948 with tags, fused parts or gaps): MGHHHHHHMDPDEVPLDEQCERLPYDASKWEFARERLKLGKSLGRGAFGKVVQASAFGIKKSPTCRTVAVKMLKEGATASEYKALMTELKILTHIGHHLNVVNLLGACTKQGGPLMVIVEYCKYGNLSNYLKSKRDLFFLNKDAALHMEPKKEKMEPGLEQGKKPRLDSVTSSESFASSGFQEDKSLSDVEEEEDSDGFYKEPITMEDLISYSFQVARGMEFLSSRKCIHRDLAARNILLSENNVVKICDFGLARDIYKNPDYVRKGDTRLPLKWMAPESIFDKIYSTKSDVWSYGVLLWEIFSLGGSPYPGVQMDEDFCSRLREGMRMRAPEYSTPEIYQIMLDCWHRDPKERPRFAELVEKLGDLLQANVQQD

FGFR1 = molecular target: T3, FGFR1 (Homo sapiens, UniProt P11362, C488A/C584S); assay: AlphaScreen kinase assay, FGFR1; details: read-out: IC50, activity toward kinase FGFR
T3 construct: P1351.pET N6 BI-PTP FGFR A458-E765-X C488A, C584S; made in house; host or cells: E. coli (PTP1B co-expressed)
T3 sequence (P11362 458-765 C488A/C584S): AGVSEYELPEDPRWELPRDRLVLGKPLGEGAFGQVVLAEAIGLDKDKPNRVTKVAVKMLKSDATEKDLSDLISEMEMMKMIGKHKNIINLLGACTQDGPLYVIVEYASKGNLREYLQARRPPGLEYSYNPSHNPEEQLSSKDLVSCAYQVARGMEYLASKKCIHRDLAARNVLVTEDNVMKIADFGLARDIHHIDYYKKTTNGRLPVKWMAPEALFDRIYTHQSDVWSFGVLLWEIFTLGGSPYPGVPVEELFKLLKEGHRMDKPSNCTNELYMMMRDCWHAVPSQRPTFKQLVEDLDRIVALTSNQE

c-Raf-1 = molecular target: T4, c-Raf-1 (Homo sapiens, UniProt P04049); assay: AlphaScreen kinase assay, c-Raf-1; details: read-out: IC50, activity toward kinase c-Raf-1
T4 construct: purchased Upstate Biotechnology
T4 sequence (P04049 whole entry): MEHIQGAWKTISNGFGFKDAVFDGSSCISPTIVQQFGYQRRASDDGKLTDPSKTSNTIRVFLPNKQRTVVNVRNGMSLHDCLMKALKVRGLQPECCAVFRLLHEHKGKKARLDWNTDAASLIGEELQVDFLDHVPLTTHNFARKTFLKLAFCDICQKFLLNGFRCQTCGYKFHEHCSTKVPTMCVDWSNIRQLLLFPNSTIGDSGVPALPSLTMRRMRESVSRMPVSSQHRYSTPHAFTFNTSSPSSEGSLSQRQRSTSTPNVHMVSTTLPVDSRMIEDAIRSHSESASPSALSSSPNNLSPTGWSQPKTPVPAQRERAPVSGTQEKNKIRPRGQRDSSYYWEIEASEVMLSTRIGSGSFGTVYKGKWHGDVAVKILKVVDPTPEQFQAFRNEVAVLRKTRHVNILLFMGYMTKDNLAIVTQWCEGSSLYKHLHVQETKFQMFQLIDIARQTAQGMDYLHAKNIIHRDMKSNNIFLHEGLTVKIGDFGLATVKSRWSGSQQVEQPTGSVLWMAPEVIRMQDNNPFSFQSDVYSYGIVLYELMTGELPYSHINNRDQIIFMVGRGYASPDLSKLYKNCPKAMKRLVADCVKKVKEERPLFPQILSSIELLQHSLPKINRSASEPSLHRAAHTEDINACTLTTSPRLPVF

Fms = molecular target: T5, Fms (Homo sapiens, UniProt P07333); assay: AlphaScreen kinase assay, Fms; details: read-out: IC50, activity toward kinase Fms
T5 construct: purchased Upstate Biotechnology
T5 sequence (P07333 20-972): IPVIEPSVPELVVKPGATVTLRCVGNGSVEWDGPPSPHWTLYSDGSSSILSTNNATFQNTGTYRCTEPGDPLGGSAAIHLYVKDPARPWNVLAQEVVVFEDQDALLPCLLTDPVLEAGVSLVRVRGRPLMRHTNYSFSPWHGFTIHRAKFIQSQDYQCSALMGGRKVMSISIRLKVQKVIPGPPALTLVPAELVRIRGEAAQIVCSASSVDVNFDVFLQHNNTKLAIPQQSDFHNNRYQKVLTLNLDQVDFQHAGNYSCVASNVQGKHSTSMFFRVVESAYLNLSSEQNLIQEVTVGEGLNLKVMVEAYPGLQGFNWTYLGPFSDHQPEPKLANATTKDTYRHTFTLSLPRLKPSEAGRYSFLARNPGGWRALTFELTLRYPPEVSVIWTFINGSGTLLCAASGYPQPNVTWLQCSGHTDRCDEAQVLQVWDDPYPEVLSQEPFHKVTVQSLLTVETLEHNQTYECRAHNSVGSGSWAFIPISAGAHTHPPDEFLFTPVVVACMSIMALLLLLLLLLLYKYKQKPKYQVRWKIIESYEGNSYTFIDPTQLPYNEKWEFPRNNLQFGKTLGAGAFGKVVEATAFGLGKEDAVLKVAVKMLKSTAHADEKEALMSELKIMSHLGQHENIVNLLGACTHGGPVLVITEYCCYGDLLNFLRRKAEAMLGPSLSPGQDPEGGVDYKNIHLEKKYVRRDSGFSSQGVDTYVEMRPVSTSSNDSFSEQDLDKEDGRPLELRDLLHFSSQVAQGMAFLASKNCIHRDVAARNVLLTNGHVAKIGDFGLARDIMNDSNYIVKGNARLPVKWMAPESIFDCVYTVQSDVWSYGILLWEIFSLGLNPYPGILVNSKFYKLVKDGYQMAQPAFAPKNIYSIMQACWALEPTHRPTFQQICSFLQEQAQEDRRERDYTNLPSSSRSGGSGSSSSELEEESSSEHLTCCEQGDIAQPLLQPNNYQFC

B-Raf = molecular target: T6, B-Raf (Homo sapiens, UniProt P15056); assay: AlphaScreen kinase assay, B-Raf; details: read-out: IC50, activity toward kinase B-Raf
T6 construct: purchased Upstate Biotechnology
T6 sequence (P15056 whole entry): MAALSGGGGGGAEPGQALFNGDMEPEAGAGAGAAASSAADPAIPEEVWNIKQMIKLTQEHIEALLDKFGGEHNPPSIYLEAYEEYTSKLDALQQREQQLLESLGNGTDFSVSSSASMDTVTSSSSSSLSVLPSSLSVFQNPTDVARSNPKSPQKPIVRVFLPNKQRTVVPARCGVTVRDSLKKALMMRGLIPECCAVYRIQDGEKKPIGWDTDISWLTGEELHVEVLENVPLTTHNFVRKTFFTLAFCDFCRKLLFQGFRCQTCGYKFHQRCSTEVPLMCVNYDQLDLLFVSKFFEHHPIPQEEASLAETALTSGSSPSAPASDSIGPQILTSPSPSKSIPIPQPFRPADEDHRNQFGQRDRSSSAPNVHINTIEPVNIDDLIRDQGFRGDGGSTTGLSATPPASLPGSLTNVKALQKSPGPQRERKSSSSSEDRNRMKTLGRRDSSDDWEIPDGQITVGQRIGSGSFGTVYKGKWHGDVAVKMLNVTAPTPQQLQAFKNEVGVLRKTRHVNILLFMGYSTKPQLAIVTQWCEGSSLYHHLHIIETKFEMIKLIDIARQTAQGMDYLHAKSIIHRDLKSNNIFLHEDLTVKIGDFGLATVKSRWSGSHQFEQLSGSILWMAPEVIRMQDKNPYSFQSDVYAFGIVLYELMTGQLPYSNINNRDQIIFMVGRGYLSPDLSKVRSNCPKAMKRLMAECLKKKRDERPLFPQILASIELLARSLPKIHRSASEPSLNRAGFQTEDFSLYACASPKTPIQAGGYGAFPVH

B-Raf V600E = molecular target: T7, B-Raf V600E (Homo sapiens, UniProt P15056, V600E); assay: AlphaScreen kinase assay, B-Raf V600E; details: read-out: IC50, activity toward kinase B-Raf V600E
T7 construct: P4254. pFastBacBD-CDC37 BRAF D437-K722-X, V600E; His6 with pFastBac HT leader (TEV site) (N); made in house; host or cells: Sf9 (baculovirus; chaperone CDC37 co-expressed)
T7 sequence (P15056 with tags, fused parts or gaps V600E): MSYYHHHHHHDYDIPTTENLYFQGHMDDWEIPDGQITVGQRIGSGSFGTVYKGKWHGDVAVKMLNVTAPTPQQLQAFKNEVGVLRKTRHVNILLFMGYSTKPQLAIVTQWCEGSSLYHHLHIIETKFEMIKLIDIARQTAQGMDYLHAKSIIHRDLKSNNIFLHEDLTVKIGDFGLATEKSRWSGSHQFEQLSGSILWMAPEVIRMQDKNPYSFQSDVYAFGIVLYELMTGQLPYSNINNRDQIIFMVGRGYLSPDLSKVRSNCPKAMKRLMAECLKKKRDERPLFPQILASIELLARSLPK

Ret = molecular target: T8, Ret (Homo sapiens, UniProt P07949); assay: AlphaScreen kinase assay, Ret; details: read-out: IC50, activity toward kinase Ret
T8 construct: P1378.pET-SF BI-PTP RET H661-R1012 HIS; made in house
T8 sequence (P07949 with tags, fused parts or gaps): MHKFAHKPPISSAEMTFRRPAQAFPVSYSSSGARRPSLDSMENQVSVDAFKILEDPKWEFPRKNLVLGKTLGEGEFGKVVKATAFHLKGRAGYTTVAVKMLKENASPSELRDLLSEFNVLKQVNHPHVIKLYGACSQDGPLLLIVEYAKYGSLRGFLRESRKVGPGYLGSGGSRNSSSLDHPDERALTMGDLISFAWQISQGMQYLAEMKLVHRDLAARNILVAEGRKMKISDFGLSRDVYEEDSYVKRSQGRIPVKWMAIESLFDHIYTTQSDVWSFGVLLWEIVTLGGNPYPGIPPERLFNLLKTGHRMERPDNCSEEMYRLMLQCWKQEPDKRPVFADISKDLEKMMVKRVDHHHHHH

Kdr = molecular target: T9, Kdr (Homo sapiens, UniProt P35968); assay: Z'-Lyte FRET kinase assay (Invitrogen), Kdr; details: read-out: IC50, activity toward kinase Kdr
T9 construct: purchased Invitrogen (assay run by Invitrogen)
T9 sequence (P35968 20-1356): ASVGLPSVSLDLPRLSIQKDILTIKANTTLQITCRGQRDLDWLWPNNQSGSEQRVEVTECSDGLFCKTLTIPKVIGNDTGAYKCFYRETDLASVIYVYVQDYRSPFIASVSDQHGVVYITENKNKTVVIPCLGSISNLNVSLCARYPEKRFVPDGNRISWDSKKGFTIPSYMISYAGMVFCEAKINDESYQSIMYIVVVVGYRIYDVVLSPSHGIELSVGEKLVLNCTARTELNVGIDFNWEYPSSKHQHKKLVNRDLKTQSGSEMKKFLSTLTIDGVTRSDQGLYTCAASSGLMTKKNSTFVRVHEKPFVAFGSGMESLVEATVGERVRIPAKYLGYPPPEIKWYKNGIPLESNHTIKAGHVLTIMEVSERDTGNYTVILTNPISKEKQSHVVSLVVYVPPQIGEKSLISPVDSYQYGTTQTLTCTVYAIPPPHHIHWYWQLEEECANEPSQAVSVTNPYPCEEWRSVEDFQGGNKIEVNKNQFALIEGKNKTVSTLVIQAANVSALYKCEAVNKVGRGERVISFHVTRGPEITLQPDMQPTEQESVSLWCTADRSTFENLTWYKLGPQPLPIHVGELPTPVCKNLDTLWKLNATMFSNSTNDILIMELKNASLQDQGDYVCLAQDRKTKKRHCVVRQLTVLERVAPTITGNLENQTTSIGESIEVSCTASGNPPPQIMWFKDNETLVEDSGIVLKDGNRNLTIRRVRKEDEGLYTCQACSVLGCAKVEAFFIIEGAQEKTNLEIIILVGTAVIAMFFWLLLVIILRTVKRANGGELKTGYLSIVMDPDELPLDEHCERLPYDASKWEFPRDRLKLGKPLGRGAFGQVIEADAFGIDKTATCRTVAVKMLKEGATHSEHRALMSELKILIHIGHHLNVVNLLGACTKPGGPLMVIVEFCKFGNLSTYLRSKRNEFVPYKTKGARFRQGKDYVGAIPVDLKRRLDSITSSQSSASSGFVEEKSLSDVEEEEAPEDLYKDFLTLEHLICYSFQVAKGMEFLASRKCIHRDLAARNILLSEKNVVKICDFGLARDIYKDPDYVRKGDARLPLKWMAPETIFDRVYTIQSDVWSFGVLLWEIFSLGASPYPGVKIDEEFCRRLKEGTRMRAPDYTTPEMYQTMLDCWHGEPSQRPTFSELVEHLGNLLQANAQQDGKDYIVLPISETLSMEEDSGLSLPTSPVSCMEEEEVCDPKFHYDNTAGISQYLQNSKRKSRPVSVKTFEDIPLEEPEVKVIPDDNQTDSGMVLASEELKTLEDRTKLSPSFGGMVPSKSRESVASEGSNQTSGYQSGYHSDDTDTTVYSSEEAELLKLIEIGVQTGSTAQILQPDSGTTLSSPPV

T1 sequence (P10721 with tags, fused parts or gaps): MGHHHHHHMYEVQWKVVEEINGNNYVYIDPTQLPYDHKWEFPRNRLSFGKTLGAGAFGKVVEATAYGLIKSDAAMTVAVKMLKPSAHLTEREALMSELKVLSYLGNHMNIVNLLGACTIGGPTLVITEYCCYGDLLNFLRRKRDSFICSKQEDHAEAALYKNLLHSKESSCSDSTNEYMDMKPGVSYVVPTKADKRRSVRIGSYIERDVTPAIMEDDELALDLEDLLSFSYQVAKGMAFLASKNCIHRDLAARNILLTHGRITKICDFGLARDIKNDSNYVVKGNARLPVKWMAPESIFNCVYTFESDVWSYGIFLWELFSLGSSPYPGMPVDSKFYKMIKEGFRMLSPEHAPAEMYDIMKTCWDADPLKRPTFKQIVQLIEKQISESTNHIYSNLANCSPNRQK

IC50 (Kit) [µM] | IC50 (Flt1) [µM] | IC50 (FGFR1) [µM] | IC50 (c-Raf-1) [µM] | IC50 (Fms) [µM] | IC50 (B-Raf) [µM] | IC50 (B-Raf V600E) [µM] | IC50 (Ret) [µM] | IC50 (Kdr) [µM] | Structure (SMILES)
≤ 10 | ≤ 10 | ≤ 10 | ≤ 10 | ≤ 10 | ≤ 10 | ≤ 10 | – | – | COc1cnc2[nH]cc(C(=O)c3c(F)ccc(NS(=O)(=O)c4cccc(F)c4)c3F)c2c1 [Compound P-1581, N-[2,4-Difluoro-3-(5-methoxy-1H-pyrrolo[2,3-b]pyridine-3-carbonyl)-phenyl]-3-fluoro-benzenesulfonamide]
– | – | – | ≤ 10 | – | ≤ 10 | ≤ 10 | ≤ 10 | – | COC(c1ccc(NCc2ccc(Cl)cc2)nc1)c1c[nH]c2ncc(-c3cccnc3)cc12 (stereo not shown) [Compound P-0939]
– | – | ≤ 10 | – | – | – | – | – | ≤ 10 | CCc1cnc2[nH]cc(C(=O)c3cccc(OC)c3)c2c1 [Compound P-0267]
– | – | – | – | – | – | ≤ 10 | – | ≤ 10 | c1cc2cc(Nc3ccc(N4CCOCC4)cc3)cnc2[nH]1 [Compound P-0981]
– | – | – | – | – | – | – | – | ≤ 10 | Brc1ccnc2[nH]ccc12 [Compound P-0458]
≤ 10 | – | ≤ 10 | ≤ 10 | ≤ 10 | ≤ 10 | ≤ 10 | – | – | CC(=O)Nc1cccc(-c2cnc3[nH]cc(C(=O)c4cccc(C(F)(F)F)c4)c3c2)c1 [Compound P-1419, N-{3-[3-(3-Trifluoromethyl-benzoyl)-1H-pyrrolo[2,3-b]pyridin-5-yl]-phenyl}-acetamide]
≤ 10 | ≤ 10 | ≤ 10 | ≤ 10 | ≤ 10 | ≤ 10 | ≤ 10 | – | – | CCCS(=O)(=O)Nc1ccc(F)c(C(=O)c2c[nH]c3ncc(N4CCN(C)CC4)cc23)c1F [Compound P-1246, propane-1-sulfonic acid {2,4-difluoro-3-[5-(4-methyl-piperazin-1-yl)-1H-pyrrolo[2,3-b]pyridine-3-carbonyl]-phenyl}-amide]
– | – | – | – | – | – | – | – | ≤ 10 | O=C(c1cccc(Cl)c1F)c1c[nH]c2ncc(Br)cc12 [Compound P-0299, (5-Bromo-1H-pyrrolo[2,3-b]pyridin-3-yl)-(3-chloro-2-fluoro-phenyl)-methanone]
– | – | ≤ 10 | – | – | – | ≤ 10 | – | ≤ 10 | COc1cccc(C(O)c2c[nH]c3ncc(Br)cc23)c1F (stereo not shown) [Compound P-0242]
≤ 10 | ≤ 10 | – | ≤ 10 | ≤ 10 | ≤ 10 | ≤ 10 | – | – | O=C(c1c(F)ccc(NS(=O)(=O)c2ccc(C(F)(F)F)cc2)c1F)c1c[nH]c2ncc(Cl)cc12 [Compound P-1541, N-[3-(5-Chloro-1H-pyrrolo[2,3-b]pyridine-3-carbonyl)-2,4-difluoro-phenyl]-4-trifluoromethyl-benzenesulfonamide]
≤ 10 | – | ≤ 10 | ≤ 10 | ≤ 10 | ≤ 10 | ≤ 10 | – | – | COc1cc(Cc2c[nH]c3ncc(-c4ccsc4)cc23)cc(OC)c1 [Compound P-0613]
– | – | – | – | – | – | – | – | ≤ 10 | Cc1ccccc1-c1c[nH]c2ncccc12 [Compound P-0482]
≤ 10 | ≤ 10 | ≤ 10 | ≤ 10 | ≤ 10 | ≤ 10 | ≤ 10 | – | – | O=C(c1c(F)ccc(NS(=O)(=O)c2cccc(F)c2)c1F)c1c[nH]c2ncc(Cl)cc12 [Compound P-1583, N-[3-(5-Chloro-1H-pyrrolo[2,3-b]pyridine-3-carbonyl)-2,4-difluoro-phenyl]-3-fluoro-benzenesulfonamide]
– | – | – | – | – | – | – | – | ≤ 10 | Cc1cc(C(=O)c2c[nH]c3nccc(-c4cccc(NS(C)(=O)=O)c4)c23)n(C)n1 [Compound P-0234]
– | ≤ 10 | ≤ 10 | ≤ 10 | – | ≤ 10 | ≤ 10 | – | – | CS(=O)(=O)Nc1ccc(Cl)c(C(=O)c2c[nH]c3ncc(Br)cc23)c1F [Compound P-0868, N-[3-(5-Bromo-1H-pyrrolo[2,3-b]pyridine-3-carbonyl)-4-chloro-2-fluoro-phenyl]-methanesulfonamide]
≤ 10 | ≤ 10 | ≤ 10 | ≤ 10 | ≤ 10 | ≤ 10 | ≤ 10 | – | – | O=C(c1c(Cl)ccc(OCC(F)(F)F)c1F)c1c[nH]c2ncc(-c3cccnc3)cc12 [Compound P-1395, [6-Chloro-2-fluoro-3-(2,2,2-trifluoro-ethoxy)-phenyl]-(5-pyridin-3-yl-1H-pyrrolo[2,3-b]pyridin-3-yl)-methanone]
≤ 10 | – | ≤ 10 | ≤ 10 | ≤ 10 | ≤ 10 | ≤ 10 | – | – | COc1ccc(F)c(C(=O)c2c[nH]c3ncc(Br)cc23)c1F [Compound P-1386, (5-Bromo-1H-pyrrolo[2,3-b]pyridin-3-yl)-(2,6-difluoro-3-methoxy-phenyl)-methanone]
– | – | – | – | – | – | – | – | ≤ 10 | COc1ccc(C(O)c2c[nH]c3ncccc23)cc1 (stereo not shown) [Compound P-0268]
– | – | – | ≤ 10 | – | ≤ 10 | ≤ 10 | ≤ 10 | – | COC(c1ccc(NCc2ccc(Cl)cc2)nc1)c1c[nH]c2ncc(-c3cccc(S(C)(=O)=O)c3)cc12 (stereo not shown) [Compound P-0998]
≤ 10 | – | – | ≤ 10 | ≤ 10 | ≤ 10 | ≤ 10 | – | – | CCCS(=O)(=O)Nc1ccc(F)c(C(=O)c2c[nH]c3ncc(-c4ccc(N5CCN(C)CC5)nc4)cc23)c1F [Compound P-1882, Propane-1-sulfonic acid (2,4-difluoro-3-{5-[6-(4-methyl-piperazine-1-yl)-pyridin-3-yl]-1H-pyrrolo[2,3-b]pyridine-3-carbonyl}-phenyl)-amide]
≤ 10 | ≤ 10 | ≤ 10 | ≤ 10 | ≤ 10 | ≤ 10 | ≤ 10 | – | – | COc1cnc2[nH]cc(C(=O)c3c(F)ccc(NS(=O)(=O)c4ccc(C(F)(F)F)cc4)c3F)c2c1 [Compound P-1542, N-[2,4-Difluoro-3-(5-methoxy-1H-pyrrolo[2,3-b]pyridine-3-carbonyl)-phenyl]-4-trifluoromethyl-benzenesulfonamide]
≤ 10 | – | ≤ 10 | ≤ 10 | ≤ 10 | ≤ 10 | ≤ 10 | – | – | O=C(c1c(F)ccc(NS(=O)(=O)c2ccccc2)c1F)c1c[nH]c2ncc(Br)cc12 [Compound P-0798, N-[3-(5-Bromo-1H-pyrrolo[2,3-b]pyridine-3-carbonyl)-2,4-difluoro-phenyl]-benzenesulfonamide]
– | – | ≤ 10 | ≤ 10 | – | ≤ 10 | ≤ 10 | ≤ 10 | – | CS(=O)(=O)Nc1ccc(Cl)c(C(=O)c2c[nH]c3ncc(-c4cccc(S(C)(=O)=O)c4)cc23)c1F [Compound P-0841, N-{4-Chloro-2-fluoro-3-[5-(3-methanesulfonyl-phenyl)-1H-pyrrolo[2,3-b]pyridine-3-carbonyl]-phenyl}-methanesulfonamide]
– | – | – | – | – | – | – | – | ≤ 10 | O=[N+]([O-])c1cccc(-c2ccnc3[nH]ccc23)c1 [Compound P-0197]
– | – | – | – | – | – | ≤ 10 | – | ≤ 10 | O=C(c1cc([N+](=O)[O-])ccc1F)c1c[nH]c2ncccc12 [Compound P-0243]
– | – | – | – | – | – | – | – | ≤ 10 | Oc1ccccc1-c1c[nH]c2ncccc12 [Compound P-0182]
– | – | – | – | – | – | – | – | ≤ 10 | Fc1ccc(NCc2c[nH]c3ncccc23)cc1 [Compound P-0144]
– | – | – | – | – | – | – | – | ≤ 10 | CC(C)Cc1nc(-c2ccnc3[nH]ccc23)no1 [Compound P-0288]
